Columns and labels:
Format in all cases: functional
Settings in all cases: 120 h, read-out: GI
Brassica napus [1] = experiment: Herbicidal activity against Brassica napus (oilseed rape) assessed as inhibition of stalk growth at 10 mg/L using pre-emergence exposure protocol after 5 days
Echinochloa crus-galli [2] = experiment: Herbicidal activity against Echinochloa crus-galli (barnyard grass) assessed as inhibition of stalk growth at 10 mg/L using pre-emergence exposure protocol after 5 days
Echinochloa crus-galli [3] = experiment: Herbicidal activity against Echinochloa crus-galli (barnyard grass) assessed as inhibition of stalk growth at 100 mg/L using pre-emergence exposure protocol after 5 days
Brassica napus [4] = experiment: Herbicidal activity against Brassica napus (oilseed rape) assessed as inhibition of stalk growth at 100 mg/L using pre-emergence exposure protocol after 5 days
Echinochloa crus-galli [5] = experiment: Herbicidal activity against Echinochloa crus-galli (barnyard grass) assessed as inhibition of root growth at 10 mg/L using pre-emergence exposure protocol after 5 days
Echinochloa crus-galli [6] = experiment: Herbicidal activity against Echinochloa crus-galli (barnyard grass) assessed as inhibition of root growth at 100 mg/L using pre-emergence exposure protocol after 5 days
Brassica napus [7] = experiment: Herbicidal activity against Brassica napus (oilseed rape) assessed as inhibition of root growth at 10 mg/L using pre-emergence exposure protocol after 5 days
Brassica napus [8] = experiment: Herbicidal activity against Brassica napus (oilseed rape) assessed as inhibition of root growth at 100 mg/L using pre-emergence exposure protocol after 5 days

Compound	inhibition of growth at 10 µg/mL (Brassica napus [1]) [%]	inhibition of growth at 10 µg/mL (Echinochloa crus-galli [2]) [%]	inhibition of growth at 100 µg/mL (Echinochloa crus-galli [3]) [%]	inhibition of growth at 100 µg/mL (Brassica napus [4]) [%]	inhibition of growth at 10 µg/mL (Echinochloa crus-galli [5]) [%]	inhibition of growth at 100 µg/mL (Echinochloa crus-galli [6]) [%]	inhibition of growth at 10 µg/mL (Brassica napus [7]) [%]	inhibition of growth at 100 µg/mL (Brassica napus [8]) [%]
COc1ccc(-c2noc(C)c2-c2csc(C3CCN(C(=O)Nc4ccc(F)cc4)CC3)n2)cc1	14.3	34.8	37	53.6	59.1	86.4	46.9	81.3
Cc1onc(-c2ccccc2)c1-c1csc(C2CCN(C(=O)Nc3ccc(F)cc3)CC2)n1	0	0	17.7	31.8	54.8	87.1	66.3	85.4
Cc1onc(-c2ccc(F)cc2)c1-c1csc(C2CCN(C(=O)Nc3ccc(F)cc3)CC2)n1	6.7	50	52.3	56.7	35.5	74.2	35.8	76.1
Cc1onc(-c2ccccc2F)c1-c1csc(C2CCN(C(=O)Nc3ccc(F)cc3)CC2)n1	16.7	56.8	63.6	66.7	64.5	80.6	52.3	96.6
Cc1onc(-c2ccc(Cl)cc2Cl)c1-c1csc(C2CCN(C(=O)Nc3ccc(F)cc3)CC2)n1	20.2	45.5	63.6	70	32.3	83.8	34.9	90.3
Cc1onc(-c2ccc(F)cc2)c1-c1csc(C2CCN(C(=O)NC(C)C)CC2)n1	46.7	47.7	63.6	66.7	54.8	83.9	68.8	87.2
CCCCNC(=O)N1CCC(c2nc(-c3c(-c4ccc(F)cc4)noc3C)cs2)CC1	40	56.8	63.6	70	71	87.1	67.8	88.1
Cc1onc(-c2ccc(F)cc2)c1-c1csc(C2CCN(C(=O)Nc3ccccc3)CC2)n1	25	39.1	56.5	53.6	65.9	95.5	46.9	83.3
Cc1onc(-c2ccc(F)cc2)c1-c1csc(C2CCN(C(=S)Nc3ccccc3)CC2)n1	6.7	43.2	63.6	53.3	48.4	87.1	54.1	90.1
Cc1onc(-c2ccccc2F)c1-c1csc(C2CCN(C(=O)NC(C)C)CC2)n1	22.7	22	14.6	54.5	56.5	73.9	68.5	83.1
CCCCNC(=O)N1CCC(c2nc(-c3c(-c4ccccc4F)noc3C)cs2)CC1	43.3	61.4	63.6	70	58.1	90.3	61.5	86.2
Cc1onc(-c2ccccc2F)c1-c1csc(C2CCN(C(=O)Nc3ccccc3)CC2)n1	31.8	17.1	39	72.7	56.5	84.8	56.2	91.2
Cc1onc(-c2ccccc2F)c1-c1csc(C2CCN(C(=S)Nc3ccccc3)CC2)n1	43.3	45.5	59.1	60	48.4	83.9	64.2	92.7
Cc1onc(-c2ccccc2)c1-c1csc(C2CCN(C(=O)Nc3ccccc3)CC2)n1	30	52.3	63.6	70	52	78.3	51.4	80.4
COc1ccc(-c2noc(C)c2-c2csc(C3CCN(C(=O)Nc4ccccc4)CC3)n2)cc1	-22.7	-22	24.6	4.5	45.7	76.1	20.2	43.8
